Where no end group is shown, it is not given here. The star is where a group is joined. Palmitoyl = CCCCCCCCCCCCCCCC(=O)*; Myristoyl = CCCCCCCCCCCCCC(=O)*
Columns and labels:
keratinocytes [1] = assay: Cytokine secretion in keratinocytes stimulated by LPS, TNFα or IL-17 (ELISA); type: cell-based, BALB/C mice; conditions: for cytokine secretion in keratinocytes: stimulated by LPS, TNFα, or IL-17
Description: To determine their effects, keratinocytes were derived from newborn BALB/C mice skin. The cells were incubated for 5 days in 24 wells plate. Cells were then incubated with PBS−/− as control or stimulated by LPS, TNFα, or IL-17. PKCα inhibitors were added as indicated. Medium containing secreted cytokines was collected after 48 hr and analyzed using ELISA. FIG. 40 is a tabular summary of cytokine secretion.
PKCδactivators were also shown to have an anti-inflammatory effect on keratinocytes and splenocytes. Keratinocytes were derived from newborn BALB/C mice skin. The cells were incubated for 5 days in 24 wells plate. Cells were then incubated with PBS−/− as control or stimulated by LPS or TNFα. The PKCδ inhibitor DAP-1 (SEQ ID NO: 16) was added. Medium containing secreted cytokines was collected after 48 hr and analyzed using ELISA. FIG. 35 is a tabular summary showing cytokine secretion in splenocytes stimulated with LPS. […] Cytokine secretion in keratinocytes stimulated by TNFα: following stimulation with 35 ng/ml TNFα. And treatment with 10 μg/ml of DAP-1, the cytokine levels of IL-1α, G-CSF, MIP-2 and KC were reduced by 95%, 70%, 20% and 30# respectively.
PKCε inhibitors were also shown to have an anti-inflammatory effect on keratinocytes. Keratinocytes were derived from newborn BALB/C mice skin. The cells were incubated for 5 days in 24 wells plate. Cells were then incubated with PBS−/− as control or stimulated by LPS or TNFα. The PKCεinhibitors EPIP-1 (SEQ ID NO: 20), EPIP-2 (SEQ ID NO: 21), or EPIP-4 (SEQ ID NO: 23) were added. Medium containing secreted cytokines was collected after 48 hr and analyzed using ELISA. FIGS. 36-39 show the results for secretion of specific cytokines while Table 8 summarizes cytokine secretion for the various PKCε inhibitors: […]

splenocytes = assay: Cytokine secretion in splenocytes stimulated with LPS or TNFα (ELISA); type: cell-based, B6 mice; conditions: TNFα 25 ng/ml, 48 hr
Description: Inhibitory effect on activated splenocytes: Splenocytes were derived from B6 mice. […] Medium containing secreted cytokines was collected after 48 hr and analyzed using ELISA.

keratinocytes [2] = assay: Keratinocyte differentiation markers (Filaggrin, Loricrin, Keratin 1); type: cell-based, C57BL/6J mice; conditions: concentration: EPIP1 and DAP1 1 μg/ml, 10 μg/ml, EPIP2 10 μg/ml
Description: Keratinocytes derived from C57BL/6J mice were incubated in medium containing Ca^2+ to induce keratinocytes differentiation. Cells were then incubated in the presence of […] (1 μg/ml). Cells were harvested, run on SDS PAGE gel and immunoblotted using anti-Filaggrin (Fil), anti Loricrin (Lor) and anti-Keratin 1 (K1) antibody.
(§1) FIGS. 7 and 8 presents a summary of expression data in keratinocytes utilizing various peptide PKCα inhibitors: MPDY-1 (SEQ ID NO: 21) as well as data for the peptide PKCα inhibitors AIP-1 (SEQ ID NO: 3), AIP-2 (SEQ ID NO: 20), AWOT-1 (SEQ ID NO: 5) and PPDY-1 (SEQ ID NO: 22). […] FIG. 8 presents a summary of expression data in keratinocytes for various peptide PKCα inhibitors.

keratinocytes [3] = assay: Keratinocyte migration; type: cell-based; parameters: concentration or dose not given beside the values
keratinocytes [4] = assay: Keratinocyte proliferation in vitro (PCNA); type: cell-based, Balb/c mice
Description: Primary murine keratinocytes from 2 days old Balb/c mice were grown for 5 days to reach full confluence in 0.05 mM Ca^2+ MEM medium. HO/02/10 treatment (10^−6M and 10^−5M) was applied 6 hours prior to induction of differentiation. Cells were harvested, run on SDS PAGE gel and immunoblotted using anti-PCNA antibodies. In addition, C57Black mice, 8-10 weeks of age were subjected to full thickness wounding in the upper back area to induce epidermis remodeling and differentiation. Following the wounding, mice were treated daily with HO/02/10 (ranged 40-4000 mg/kg/day) for 7 days. At the termination point, mice were euthanized and upper back skin samples were fixed in 4% paraformaldehyde solution, following paraffin embedding and slide preparation. Skin samples were then subjected to immunohistochemical staining utilizing PCNA antibody. (n=18).
as §1

[5] = LPS 1 [μg/ml], peptide [10 μg/ml], 48 hr
[6] = LPS 1 [μg/ml], peptide [1 g/ml], 48 hr
[7] = TNF [35 ng/ml], peptide [10 μg/ml], 48 hr
[8] = TNF [35 ng/ml], peptide [1 g/ml], 48 hr
[9] = keratinocytes, LPS (1 μg/ml) (EPIP4: printed 1 mg/ml), peptide concentration not given
[10] = keratinocytes, TNFa stim (35 ng/ml), 1 μg/ml of peptide (given for EPIP1, EPIP2, not for EPIP4), reduction printed with or without minus sign
[11] = keratinocytes, upon LPS and TNFa activation

Substance: Myristoyl-Phe-Ala-Arg-Lys-Gly-Ala-Leu (Myristoyl-FARKGAL) [AIP-2]
- cytokine secretion from LPS and TNFα activated keratinocytes (keratinocytes [1]; FIGS. 19 to 23): decrease
- cytokine secretion from IL-17A activated keratinocytes (keratinocytes [1]; FIGS. 24 to 27): decrease
- cytokine secretion in keratinocytes (keratinocytes [1]; 48 hr): effective in decreasing cytokine secretion

Substance: Myristoyl-Thr-Arg-Lys-Arg-Gln-Arg-Ala-Met-Arg-Arg-Arg-Val-His-Gln-Ile-Asn-Gly (Myristoyl-TRKRQRAMRRRVHQING) [MPE-1]
- G-CSF (% reduction in secretion) (splenocytes; peptide 1 μg/ml): 40%
- IL-6 (% reduction in secretion) (splenocytes; peptide 1 μg/ml): 25%
- IL-17 (% reduction in secretion) (splenocytes; peptide 1 μg/ml): 90%
- G-CSF (% reduction in secretion) (splenocytes; peptide 10 μg/ml): 15%
- IL-17 (% reduction in secretion) (splenocytes; peptide 10 μg/ml): 90%

Substance: PYIALNVD [EPIP-2]
- G-CSF secretion (change) (keratinocytes [1]; [5]): −75%
- IL-6 secretion (change) (keratinocytes [1]; [5]): −55%
- IP-10 secretion (change) (keratinocytes [1]; [5]): −40%
- KC secretion (change) (keratinocytes [1]; [5]): −90%
- G-CSF secretion (change) (keratinocytes [1]; [6]): −50%
- IL-6 secretion (change) (keratinocytes [1]; [6]): −40%
- IP-10 secretion (change) (keratinocytes [1]; [6]): −50%
- KC secretion (change) (keratinocytes [1]; [6]): −90%
- G-CSF secretion (change) (keratinocytes [1]; [7]): −100%
- IL-6 secretion (change) (keratinocytes [1]; [7]): −95%
- IP-10 secretion (change) (keratinocytes [1]; [7]): (−40%)
- G-CSF secretion (change) (keratinocytes [1]; [8]): −100%
- IL-6 secretion (change) (keratinocytes [1]; [8]): −95%
- IP-10 secretion (change) (keratinocytes [1]; [8]): (−65%)
- G-CSF secretion (change) (keratinocytes [1]; [9]): −50%
- IL-6 secretion (change) (keratinocytes [1]; [9]): −40%
- IP-10 secretion (change) (keratinocytes [1]; [9]): −50%
- KC secretion (change) (keratinocytes [1]; [9]): −90%
- Reduces Chemokines IP 10 (keratinocytes [1]; [10]): Chemokines IP 10 (65%)
- Reduces proinflammatory cytokines IL-6 (keratinocytes [1]; [10]): (95%), systemic cytokines G-SCF
- Differentiation markers: granular differentiation (keratinocytes [2]): Reduces granular
- Differentiation markers: spainous differentiation (keratinocytes [2]): Slightly induces
- Migration, Induces (keratinocytes [3]): (200%)
- IL-4 (% reduction in secretion) (splenocytes; peptide 1 μg/ml): 15%
- IL-17 (% reduction in secretion) (splenocytes; peptide 1 μg/ml): 80%
- IP-10 (% reduction in secretion) (splenocytes; peptide 1 μg/ml): 20%
- G-CSF (% reduction in secretion) (splenocytes; peptide 10 μg/ml): 30%
- IL-6 (% reduction in secretion) (splenocytes; peptide 10 μg/ml): 25%
- IL-10 (% reduction in secretion) (splenocytes; peptide 10 μg/ml): 30%
- IL-17 (% reduction in secretion) (splenocytes; peptide 10 μg/ml): 85%
- IP-10 (% reduction in secretion) (splenocytes; peptide 10 μg/ml): 10%
- Proliferation markers (keratinocytes [4]; 1 μg/ml): Induces
- Proliferation markers (keratinocytes [4]; 10 μg/ml): Reduce

Substance: Palmitoyl-Phe-Ala-Arg-Lys-Gly-Ala-Leu-Arg-Gln (Palmitoyl-FARKGALRQ) [PPDY-1]
- cytokine secretion in keratinocytes (keratinocytes [1]; 48 hr): effective in decreasing cytokine secretion

Substance: Pro-Ala-Trp-His-Asp (PAWHD) [EPIP-3]
- cytokine secretion, comparison with MPDY-1 (keratinocytes [1]; keratinocytes, IL-17 activation): IL-17: similar effect to MPDY-1
- pro-inflammatory cytokines, chemokines (effect) (keratinocytes [1]; [11]): Reduces pro-inflammatory cytokines,
- pro-inflammatory cytokines, chemokines, comparison with MPDY-1 (keratinocytes [1]; [11]): chemokines, better than MPDY-1 upon
- Differentiation markers: granular differentiation (keratinocytes [2]): Reduces granular
- Migration, Induces (keratinocytes [3]): (200%)
- Proliferation markers (PCNA) (keratinocytes [4]; concentration not given): Induces

Substance: TLNPQWES [AIP-1]
- cytokine secretion in keratinocytes (keratinocytes [1]; 48 hr): effective in decreasing cytokine secretion

Reference: patent US8349793B2, “Method for treatment of inflammatory disease and disorder” (Heal0r, Ltd., priority 2010, dated 2013)
